Measurements from patent US20250115597A1, “TYK2 INHIBITORS AND COMPOSITIONS AND METHODS THEREOF” (LYNK PHARMACEUTICALS CO. LTD., priority 2021, published 2025).
≈ marks a conversion by molar mass, not a printed value.

Experiments:
[1] = Plasma protein binding by equilibrium dialysis; format: in vitro ADME; settings: human plasma, equilibrium dialysis 5 hours at 37° C.; read-out: % Bound (human) (converted)
Summary of the method: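 Compound spiked into plasma at 0.2 and 2 μM was dialyzed against PBS for 5 h at 37° C with shaking, in duplicate. Plasma and buffer chambers were matrix-matched, protein-precipitated and analysed by LC-MS/MS to derive % unbound, % bound and % recovery.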

[2] = molecular target: T1, Ba/F3-FL-TYK2-P760L cells (Homo sapiens, UniProt P29597, P760L, cells depend on it); assay: Anti-proliferative assay, Ba/F3-FL-TYK2-P760L cells (Cell-Titer Glo); format: cell-based; settings: 72 h, read-out: BaF3-FL-T2P760L IC50
T1 construct: BaF3-FL-T2P760L (nM)
T1 sequence (P29597 whole entry P760L): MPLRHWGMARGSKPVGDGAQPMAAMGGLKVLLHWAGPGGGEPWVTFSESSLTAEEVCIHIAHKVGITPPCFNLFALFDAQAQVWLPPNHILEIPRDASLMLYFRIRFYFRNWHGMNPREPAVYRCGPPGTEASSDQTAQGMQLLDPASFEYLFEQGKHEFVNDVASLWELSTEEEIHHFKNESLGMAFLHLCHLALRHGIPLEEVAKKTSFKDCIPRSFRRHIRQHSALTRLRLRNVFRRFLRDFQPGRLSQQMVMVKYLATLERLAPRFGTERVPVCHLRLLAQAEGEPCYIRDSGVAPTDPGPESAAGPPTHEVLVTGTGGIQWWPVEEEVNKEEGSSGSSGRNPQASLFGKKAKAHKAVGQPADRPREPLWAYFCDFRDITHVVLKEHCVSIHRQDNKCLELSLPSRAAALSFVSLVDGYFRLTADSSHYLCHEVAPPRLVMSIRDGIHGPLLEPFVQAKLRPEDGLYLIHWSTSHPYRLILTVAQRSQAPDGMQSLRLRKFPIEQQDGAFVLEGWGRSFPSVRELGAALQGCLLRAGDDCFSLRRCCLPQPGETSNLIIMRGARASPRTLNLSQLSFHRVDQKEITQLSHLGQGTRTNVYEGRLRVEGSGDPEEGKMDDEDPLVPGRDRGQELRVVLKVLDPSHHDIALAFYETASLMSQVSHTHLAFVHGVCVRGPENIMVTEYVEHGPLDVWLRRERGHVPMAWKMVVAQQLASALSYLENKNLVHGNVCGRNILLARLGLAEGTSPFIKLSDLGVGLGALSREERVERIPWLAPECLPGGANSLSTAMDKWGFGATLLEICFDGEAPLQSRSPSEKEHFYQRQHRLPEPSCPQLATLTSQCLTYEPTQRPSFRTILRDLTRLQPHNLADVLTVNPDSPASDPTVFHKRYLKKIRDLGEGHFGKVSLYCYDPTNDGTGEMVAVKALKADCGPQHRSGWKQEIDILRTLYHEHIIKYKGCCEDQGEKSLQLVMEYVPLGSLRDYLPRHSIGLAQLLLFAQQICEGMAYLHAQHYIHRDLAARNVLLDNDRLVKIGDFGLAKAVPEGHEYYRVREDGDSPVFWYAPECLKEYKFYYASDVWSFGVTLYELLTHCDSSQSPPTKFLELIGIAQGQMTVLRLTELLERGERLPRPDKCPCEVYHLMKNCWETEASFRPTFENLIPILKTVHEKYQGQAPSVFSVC
Summary of the method: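 Ba/F3 cells made IL-3-independent by TEL-fused or full-length mutant JAK-family kinases, seeded at 2000/well and dosed after 24 h with 9 three-fold dilutions topping at 20 μM. Viability after 72 h at 37 °C, 5% CO2 by Cell-Titer Glo ATP luminescence.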

[3] = Hepatocytes metabolic stability assay; format: in vitro ADME; settings: cryopreserved hepatocytes, human hepatocytes, 1.0×10^6 cells/mL; for CLint scaled at 1 μM: read-out: Human hepatocyte Clint(liver); for half-life at 1 μM: read-out: Human hepatocyte stability T1/2
Summary of the method: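 Cryopreserved hepatocytes (1.0×10^6 cells/mL final) were incubated with test compound at 1 μM at 37 °C and sampled at 0, 15, 30, 60 and 120 min, with acetonitrile quench and LC-MS/MS. k came from log-linear % remaining versus time, giving T1/2 and CLint.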

Kinetic solubility = format: physicochemical; settings: phosphate buffer, aqueous buffer, kinetic from dmso stock, PBS (pH 7.4), 1% DMSO, room temperature
Protocol: Aliquots of 8 μL of reference and test compound stock solutions (10 mM/5 mM) are added into 792 μL of 100 mM pH 7.4 phosphate buffer. The final DMSO concentration is 1%. Sample tubes are shaken for 2 hours at 1000 rpm at room temperature. Samples are centrifuged at 12000 rpm for 10 min to precipitate un-dissolved particles. And transfer the supernatants to a new tube or plate. Add 5 μL of samples (no diluted, 10 times diluted and 100 times diluted) and standard curve samples to 95 μL of ACN containing IS for LC-MS/MS analysis.

TYK2-JH2 domain = molecular target: T2, TYK2-JH2 domain (Homo sapiens, UniProt P29597); assay: Binding activity test for JH2 domain of TYK2 (Tb-antibody/tracer FRET); settings: for JAK1/TYK2 selectivity: ratio JAK1-JH2 IC50 / TYK2-JH2 IC50
T2 construct: IC50 on JH2 domain activity (nM)
T2 sequence (P29597 589-875 limits assumed): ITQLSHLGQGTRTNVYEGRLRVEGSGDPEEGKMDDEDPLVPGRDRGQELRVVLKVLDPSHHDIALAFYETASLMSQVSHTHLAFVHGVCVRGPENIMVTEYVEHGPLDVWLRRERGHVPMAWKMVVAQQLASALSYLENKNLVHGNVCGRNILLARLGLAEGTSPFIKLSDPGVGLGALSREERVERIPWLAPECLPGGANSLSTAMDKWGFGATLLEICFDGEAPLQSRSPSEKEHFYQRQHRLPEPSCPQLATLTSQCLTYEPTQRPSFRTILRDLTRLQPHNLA
Summary of the method: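 Compounds tested as 11-point 3-fold serial dilutions against the JH2 domain in a Tb-antibody/tracer FRET binding format. Plates incubated 60 min at 25° C, then overnight at 4° C, before FRET reading.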

Row | fraction unbound at 5 h [1] | GI50 [2] [nM] | CLint scaled at 1 μM [3] [mL/min/kg] | half-life at 1 μM [3] [h] | solubility at 2 h (Kinetic solubility) [µM] | IC50 (TYK2-JH2 domain) [nM] | JAK1/TYK2 selectivity (TYK2-JH2 domain) | Compound
1 | 0.068 | 56.2 | 43.1 | 1.49 | 38.7 (≈ 15.9 µg/mL) | 0.286 | 34.6 | [2H]C([2H])([2H])NC(=O)c1cnc(NC(=O)C2CC2)cc1Nc1ccc2cnn(CC)c2c1OC [Example 44, 6-(Cyclopropanecarboxamido)-4-((1-ethyl-7-methoxy-1H-indazol-6-yl)amino)-N-(methyl-d3)nicotinamide]
2 | 0.034 | 69.3 | – | – | 13.6 (≈ 6.33 µg/mL) | 0.416 | 49.9 | [2H]C([2H])([2H])NC(=O)c1cnc(NC(=O)C2CC2)cc1Nc1ccc2cnn(CC(F)(F)F)c2c1OC [Example 129, 6-(Cyclopropanecarboxamido)-4-((7-methoxy-1-(2,2,2-trifluoroethyl)-1H-indazol-6-yl)amino)-N-(methyl-d3)nicotinamide]
3 | 0.039 | 33.1 | < 7.35 | > 4 | – | 0.524 | 23.6 | [2H]C([2H])([2H])NC(=O)c1cnc(Nc2ccc(F)cn2)cc1Nc1nn(C)c2ccn(CC)c(=O)c12 [Example 139, 4-((5-Ethyl-1-methyl-4-oxo-4,5-dihydro-1H-pyrazolo[4,3-c]pyridin-3-yl)amino)-6-((5-fluoropyridin-2-yl)amino)-N-(methyl-d3)nicotinamide]
4 | 0.107 | 98.2 | < 7.35 | > 4 | – | 0.278 | 67.0 | [2H]C([2H])([2H])NC(=O)c1cnc(NC(=O)C2CC2)cc1Nc1ccn2ncc(C#N)c2c1OC [Example 165, 4-((3-Cyano-4-methoxypyrazolo[1,5-a]pyridin-5-yl)amino)-6-(cyclopropanecarboxamido)-N-(methyl-d3)nicotinamide]
5 | 0.124 | 41.6 | 18.5 | 1.59 | 17.6 (≈ 7.28 µg/mL) | 0.22 | 67.1 | [2H]C([2H])([2H])NC(=O)c1cnc(NC(=O)C2CC2)cc1Nc1ncc2cnn(CC)c2c1OC [Example 262, 6-(Cyclopropanecarboxamido)-4-((1-ethyl-7-methoxy-1H-pyrazolo[4,3-c]pyridin-6-yl)amino)-N-(methyl-d3)nicotinamide]
